The subject of data set [1] is DENV2. The data set can be described thus: Immunofluorescence assay of DENV2 infectivity. It is filed as cell-based, Dengue virus type 2 (strain 16681). The following applies: for rate of NS4B-positive cells: Vero E6, DENV2-infected, 96 h.
Data set [2] has as its system DENV2. Put plainly: Anti-DENV2 activity in human lung epithelial A549 cells. The format is cell-based, Dengue virus type 2. The following applies: DENV2 MOI 0.01, 120 h.

Take `CC1(C)[C@@H](O[C@H]2O[C@H](C(=O)O)[C@@H](O)[C@H](O)[C@H]2O[C@@H]2O[C@H](C(=O)O)[C@@H](O)[C@H](O)[C@H]2O)CC[C@]2(C)[C@H]3C(=O)C=C4[C@@H]5C[C@@](C)(C(=O)O)CC[C@]5(C)CC[C@@]4(C)[C@]3(C)CC[C@@H]12` [Compound 1, Glycyrrhizic acid, reference compound]: the “TI (CC50/IC50)” value in data set [1] (Vero E6 cells) is given as “˃12.3”.
On to `CC[C@H](C)[C@H](NC(=O)[C@H]1O[C@@H](O[C@H]2[C@@H](O[C@H]3CC[C@]4(C)[C@H]5C(=O)C=C6[C@@H]7C[C@@](C)(C(=O)N[C@H](C(=O)O)[C@@H](C)CC)CC[C@]7(C)CC[C@@]6(C)[C@]5(C)CC[C@H]4C3(C)C)O[C@H](C(=O)N[C@H](C(=O)O)[C@@H](C)CC)[C@@H](O)[C@@H]2O)[C@H](O)[C@@H](O)[C@@H]1O)C(=O)O` [Compound 13], for which the “rate of NS4B-positive cells” value in data set [1] (0.1 μM compound) is reported as 37.2%; in data set [1] (1 μM compound), 29.4%; in data set [1] (10 μM compound), 1.6%. For the same compound, the “anti-DENV2 activity in A549 cells (in words)” value in data set [2] is “potent anti-DENV2 activity”.
As for `CC1(C)[C@@H](O[C@H]2O[C@H](C(=O)N[C@@H](Cc3ccccc3)C(=O)O)[C@@H](O)[C@H](O)[C@H]2O[C@@H]2O[C@H](C(=O)N[C@@H](Cc3ccccc3)C(=O)O)[C@@H](O)[C@H](O)[C@H]2O)CC[C@]2(C)[C@H]3C(=O)C=C4[C@@H]5C[C@@](C)(C(=O)N[C@@H](Cc6ccccc6)C(=O)O)CC[C@]5(C)CC[C@@]4(C)[C@]3(C)CC[C@@H]12` [Compound 14], the “anti-DENV2 activity (in words)” value in data set [1] (Vero E6 cells, CPE test and NS4B-positive cells) is recorded as “dropped the anti-DENV activity”.
Take `COC(=O)[C@H](CCSC)NC(=O)[C@H]1O[C@@H](O[C@H]2[C@@H](O[C@H]3CC[C@]4(C)[C@H]5C(=O)C=C6[C@@H]7C[C@@](C)(C(=O)N[C@@H](CCSC)C(=O)OC)CC[C@]7(C)CC[C@@]6(C)[C@]5(C)CC[C@H]4C3(C)C)O[C@H](C(=O)N[C@@H](CCSC)C(=O)OC)[C@@H](O)[C@@H]2O)[C@H](O)[C@@H](O)[C@@H]1O` [Compound 6]: in data set [1] (Vero E6 cells), the “TI (CC50/IC50)” value was “˃22.2”.

The values above are taken from article PMC7172207 (Bioorganic & Medicinal Chemistry Letters, 2019).
